Measurements taken from the supplement of paper PMC10307832.

Assays:
Experiment in all cases: relative viability (nuclei count vs DMSO), 5 days (fraction); higher = more cells survive
[1] = compound: CC1=C(CC(=O)O)c2cc(F)ccc2/C1=C\c1ccc([S+](C)[O-])cc1 [Sulindac] + NC(=O)Nc1cc(-c2cccc(F)c2)sc1C(=O)N[C@H]1CCCNC1 [AZD7762] (partner 0.2 µM)
Summary of the method: (§1)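 Relative viability equals treated-well nuclei counts divided by vehicle-well nuclei counts. Counts came from 4× images of lung cancer cell lines grown in 1536-well plates for 5 days after pin-tool dosing on the day after seeding. Dosing used one drug alone or a fixed anchor-drug dose plus five library-drug doses (not always all listed) in √10 steps, and values are medians of duplicate plates.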

[2] = compound: CC1=C(CC(=O)O)c2cc(F)ccc2/C1=C\c1ccc([S+](C)[O-])cc1 [Sulindac] + O=C(CCCCCCC(=O)Nc1ccccc1)NO [Vorinostat] (partner 1 µM)
Summary of the method: as §1

[3] = compound: CC1=C(CC(=O)O)c2cc(F)ccc2/C1=C\c1ccc([S+](C)[O-])cc1 [Sulindac] + O=C(c1cc(Cc2n[nH]c(=O)c3ccccc23)ccc1F)N1CCN(C(=O)C2CC2)CC1 [Olaparib] (partner 8 µM)
Summary of the method: as §1

[4] = compound: CN[C@@H]1C[C@H]2O[C@@](C)([C@@H]1OC)n1c3ccccc3c3c4c(c5c6ccccc6n2c5c31)C(=O)NC4 [Staurosporine] + O=C(CCCCCCC(=O)Nc1ccccc1)NO [Vorinostat] (partner 1 µM)
Summary of the method: as §1

## H3255
[1]; first compound 0.08 µM
  relative viability: 0.884
[1]; first compound 0.253 µM
  relative viability: 0.931
[1]; first compound 0.8 µM
  relative viability: 0.627
[1]; first compound 2.53 µM
  relative viability: 0.867
[1]; first compound 8 µM
  relative viability: 1.11
[2]; first compound 0.08 µM
  relative viability: 0.765
[2]; first compound 0.253 µM
  relative viability: 0.723
[2]; first compound 0.8 µM
  relative viability: 0.661
[2]; first compound 2.53 µM
  relative viability: 0.695
[2]; first compound 8 µM
  relative viability: 0.819
[3]; first compound 0.08 µM
  relative viability: 0.573
[3]; first compound 0.253 µM
  relative viability: 0.531
[3]; first compound 0.8 µM
  relative viability: 0.501
[3]; first compound 2.53 µM
  relative viability: 0.557
[3]; first compound 8 µM
  relative viability: 0.553
[4]; first compound 0.005 µM
  relative viability: 0.276
[4]; first compound 0.01581 µM
  relative viability: 0.219
[4]; first compound 0.05 µM
  relative viability: 0.384
[4]; first compound 0.1581 µM
  relative viability: 0.48
[4]; first compound 0.5 µM
  relative viability: 0.133

## HCC-15
[1]; first compound 0.08 µM
  relative viability: 1.11
[1]; first compound 0.253 µM
  relative viability: 1.44
[1]; first compound 0.8 µM
  relative viability: 0.883
[1]; first compound 2.53 µM
  relative viability: 1.23
[1]; first compound 8 µM
  relative viability: 1.16
[2]; first compound 0.08 µM
  relative viability: 0.94
[2]; first compound 0.253 µM
  relative viability: 0.885
[2]; first compound 0.8 µM
  relative viability: 0.738
[2]; first compound 2.53 µM
  relative viability: 0.835
[2]; first compound 8 µM
  relative viability: 0.975
[3]; first compound 0.08 µM
  relative viability: 0.747
[3]; first compound 0.253 µM
  relative viability: 0.763
[3]; first compound 0.8 µM
  relative viability: 0.68
[3]; first compound 2.53 µM
  relative viability: 0.702
[3]; first compound 8 µM
  relative viability: 0.765
[4]; first compound 0.005 µM
  relative viability: 0.811
[4]; first compound 0.05 µM
  relative viability: 0.485
[4]; first compound 0.1581 µM
  relative viability: 0.28
[4]; first compound 0.5 µM
  relative viability: 0.213

## NCI-H838
[1]; first compound 0.08 µM
  relative viability: 1.05
[1]; first compound 0.253 µM
  relative viability: 0.976
[1]; first compound 0.8 µM
  relative viability: 0.843
[1]; first compound 2.53 µM
  relative viability: 0.886
[1]; first compound 8 µM
  relative viability: 1.04
[2]; first compound 0.08 µM
  relative viability: 0.736
[2]; first compound 0.253 µM
  relative viability: 0.777
[2]; first compound 0.8 µM
  relative viability: 0.762
[2]; first compound 2.53 µM
  relative viability: 0.726
[2]; first compound 8 µM
  relative viability: 0.713
[3]; first compound 0.08 µM
  relative viability: 0.941
[3]; first compound 0.253 µM
  relative viability: 0.798
[3]; first compound 0.8 µM
  relative viability: 0.65
[3]; first compound 2.53 µM
  relative viability: 0.809
[3]; first compound 8 µM
  relative viability: 0.914
[4]; first compound 0.005 µM
  relative viability: 0.36
[4]; first compound 0.01581 µM
  relative viability: 0.217
[4]; first compound 0.05 µM
  relative viability: 0.142
[4]; first compound 0.1581 µM
  relative viability: 0.171

## HCC-44
[1]; first compound 0.08 µM
  relative viability: 1.04
[1]; first compound 0.253 µM
  relative viability: 1.01
[1]; first compound 0.8 µM
  relative viability: 1.09
[1]; first compound 2.53 µM
  relative viability: 0.979
[1]; first compound 8 µM
  relative viability: 0.942
[2]; first compound 0.08 µM
  relative viability: 1.14
[2]; first compound 0.253 µM
  relative viability: 1.1
[2]; first compound 0.8 µM
  relative viability: 1.14
[2]; first compound 2.53 µM
  relative viability: 1.1
[2]; first compound 8 µM
  relative viability: 1.1
[3]; first compound 0.08 µM
  relative viability: 0.983
[3]; first compound 0.253 µM
  relative viability: 1.05
[3]; first compound 0.8 µM
  relative viability: 0.773
[3]; first compound 2.53 µM
  relative viability: 0.933
[3]; first compound 8 µM
  relative viability: 1.01
[4]; first compound 0.005 µM
  relative viability: 1.1
[4]; first compound 0.05 µM
  relative viability: 0.517
[4]; first compound 0.1581 µM
  relative viability: 0.27
[4]; first compound 0.5 µM
  relative viability: 0.2
